Measurements as given in the supplement of paper PMC10307832.

Legend:
Assay in all cases: relative viability (nuclei count vs DMSO), 5 days (fraction); higher = more cells survive
Olaparib + AZD7762 = compound: O=C(c1cc(Cc2n[nH]c(=O)c3ccccc23)ccc1F)N1CCN(C(=O)C2CC2)CC1 [Olaparib] + NC(=O)Nc1cc(-c2cccc(F)c2)sc1C(=O)N[C@H]1CCCNC1 [AZD7762] (partner 0.2 µM)
How it was run: (§1)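 Lung cancer cell lines, seeded in 1536-well plates, were treated the following day by pin tool with a single drug or with five library-drug doses (not always all listed) in √10 steps on top of a fixed anchor-drug dose. Cells were fixed and nuclei stained in one step after 5 days, and nuclei were counted. Relative viability is the nuclei count for treated wells divided by that for vehicle wells, reported as medians of duplicate plates.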

Olaparib + Linsitinib = compound: O=C(c1cc(Cc2n[nH]c(=O)c3ccccc23)ccc1F)N1CCN(C(=O)C2CC2)CC1 [Olaparib] + C[C@]1(O)C[C@@H](c2nc(-c3ccc4ccc(-c5ccccc5)nc4c3)c3c(N)nccn32)C1 [Linsitinib] (partner 1 µM)
How it was run: as §1

Crizotinib + Decitabine = compound: C[C@@H](Oc1cc(-c2cnn(C3CCNCC3)c2)cnc1N)c1c(Cl)ccc(F)c1Cl [Crizotinib] + Nc1ncn([C@H]2C[C@H](O)[C@@H](CO)O2)c(=O)n1 [Decitabine] (partner 2 µM)
How it was run: as §1

Olaparib + Lapatinib = compound: O=C(c1cc(Cc2n[nH]c(=O)c3ccccc23)ccc1F)N1CCN(C(=O)C2CC2)CC1 [Olaparib] + CS(=O)(=O)CCNCc1ccc(-c2ccc3ncnc(Nc4ccc(OCc5cccc(F)c5)c(Cl)c4)c3c2)o1 [Lapatinib] (partner 2 µM)
How it was run: as §1

Carfilzomib + Pictilisib = compound: CC(C)C[C@H](NC(=O)[C@H](CCc1ccccc1)NC(=O)CN1CCOCC1)C(=O)N[C@@H](Cc1ccccc1)C(=O)N[C@@H](CC(C)C)C(=O)[C@@]1(C)CO1 [Carfilzomib] + CS(=O)(=O)N1CCN(Cc2cc3nc(-c4cccc5[nH]ncc45)nc(N4CCOCC4)c3s2)CC1 [Pictilisib] (partner 1 µM)
How it was run: as §1

Which results are given for NCI-H1793?
relative viability (Olaparib + AZD7762; first compound 0.08 µM): 0.747; relative viability (Olaparib + AZD7762; first compound 0.253 µM): 0.438; relative viability (Olaparib + AZD7762; first compound 2.53 µM): 0.488; relative viability (Olaparib + AZD7762; first compound 8 µM): 0.283; relative viability (Olaparib + Linsitinib; first compound 0.08 µM): 0.862; relative viability (Olaparib + Linsitinib; first compound 0.253 µM): 0.738; relative viability (Olaparib + Linsitinib; first compound 2.53 µM): 0.942; relative viability (Olaparib + Linsitinib; first compound 8 µM): 0.655; relative viability (Crizotinib + Decitabine; first compound 0.03162 µM): 0.522; relative viability (Crizotinib + Decitabine; first compound 0.1 µM): 0.53; relative viability (Crizotinib + Decitabine; first compound 1 µM): 0.555; relative viability (Olaparib + Lapatinib; first compound 0.08 µM): 0.641; relative viability (Olaparib + Lapatinib; first compound 0.253 µM): 0.5; relative viability (Olaparib + Lapatinib; first compound 2.53 µM): 0.578; relative viability (Olaparib + Lapatinib; first compound 8 µM): 0.649; relative viability (Carfilzomib + Pictilisib; first compound 0.003162 µM): 0.328; relative viability (Carfilzomib + Pictilisib; first compound 0.01 µM): 0.293; relative viability (Carfilzomib + Pictilisib; first compound 0.03162 µM): 0.335; relative viability (Carfilzomib + Pictilisib; first compound 0.1 µM): 0.248
